Measurements published in PMC2921341, “Interaction of Serum- and Glucocorticoid Regulated Kinase 1 (SGK1) with the WW-Domains of Nedd4-2 Is Required for Epithelial Sodium Channel Regulation” (PLoS ONE, 2010).

Test system: SGK
Assay: GST pulldown of SGK from COS7 lysate with WW-domain GST fusion proteins
Type: binding, human
Details: GST fusion on glutathione-Sepharose, COS7 lysate with SGK-FLAG or ΔN60SGK-HA, 3 h at 4°C, western blot, n = 7
Method: In order to better understand the molecular nature of the interaction between Nedd4-2 and SGK, in vitro GST pulldown studies were performed. […] Individual WW-domains of Nedd4-2 or Nedd4, or combinations of Nedd4-2 WW-domains, were expressed as GST fusion proteins and purified on glutathione-Sepharose beads. Lysates of COS7 cells expressing SGK or ΔN60-SGK (both SGK constructs gave the same results) were incubated with the WW-domain fusion proteins or GST alone. Bound SGK was detected by western blotting with anti-FLAG/HA.
pGEX-KG containing the cDNA of WW-domains of Nedd4 and Nedd4-2 or the empty vector were transformed into Escherichia coli strain BL21, and expression of the WW-domains-GST fusion protein or GST alone was induced with 0.5 µM isopropyl-D-1-thiogalactopyranoside for 3 h at 37°C. Bacteria were lysed using BugBuster (Novagen, Merck KGaA, Darmstadt, Germany), and the GST fusion proteins were purified on glutathione-Sepharose beads (GE Healthcare, Little Chalfont, Bucks, U.K.). COS7 cells were transiently transfected with pMT3 containing SGK/SGKS422D-FLAG or ΔN60SGK-HA. […] The glutathione-Sepharose beads, along with the fusion proteins and any binding proteins, were collected by centrifugation (1 min, 16,000 g), washed extensively in T-TBS and analyzed by SDS-PAGE and Western blotting using anti-FLAG antibody. Resulting X-ray films were analyzed densitometrically.

Substance	binding to SGK in GST pulldown (in words)
Nedd4 WW1: WW-domain 1 of Nedd4, GST fusion (SPLPPGWEERQDILGRTYYVNHESRRTQWKRPTP; left off: GST, end not stated, kept)	interact with SGK
Nedd4 WW3: WW-domain 3 of Nedd4 (GFLPKGWEVRHAPNGRPFFIDHNTKTTTWEDPRL; left off: GST, end not stated, cleaved)	interact with SGK
